The values below come from ChEMBL document CHEMBL5370619, “Targeting the Tyrosine Kinase 2 (TYK2) Pseudokinase Domain: Discovery of the Selective TYK2 Inhibitor ABBV-712” (J Med Chem, 2023).

The structures appear in SMILES notation. pEC50: −log10 of the molar value.

Data set [1] deals with Mus musculus. The data set is described as follows: Anti-inflammatory activity in B10.RII mouse model of mouse IL-23 mini circle induced psoriasiform dermatitis assessed as decrease in ear thickness at 100 mg/kg,po BID for 5 days by caliper analysis. The following applies: time 5 day. It counts as functional. On the set-up: scale not given: the % may be the effect or the level left.

Data set [2] concerns the target T1, Tyrosine-protein kinase JAK3 (Homo sapiens, UniProt P52333).
T1 sequence (P52333 whole entry): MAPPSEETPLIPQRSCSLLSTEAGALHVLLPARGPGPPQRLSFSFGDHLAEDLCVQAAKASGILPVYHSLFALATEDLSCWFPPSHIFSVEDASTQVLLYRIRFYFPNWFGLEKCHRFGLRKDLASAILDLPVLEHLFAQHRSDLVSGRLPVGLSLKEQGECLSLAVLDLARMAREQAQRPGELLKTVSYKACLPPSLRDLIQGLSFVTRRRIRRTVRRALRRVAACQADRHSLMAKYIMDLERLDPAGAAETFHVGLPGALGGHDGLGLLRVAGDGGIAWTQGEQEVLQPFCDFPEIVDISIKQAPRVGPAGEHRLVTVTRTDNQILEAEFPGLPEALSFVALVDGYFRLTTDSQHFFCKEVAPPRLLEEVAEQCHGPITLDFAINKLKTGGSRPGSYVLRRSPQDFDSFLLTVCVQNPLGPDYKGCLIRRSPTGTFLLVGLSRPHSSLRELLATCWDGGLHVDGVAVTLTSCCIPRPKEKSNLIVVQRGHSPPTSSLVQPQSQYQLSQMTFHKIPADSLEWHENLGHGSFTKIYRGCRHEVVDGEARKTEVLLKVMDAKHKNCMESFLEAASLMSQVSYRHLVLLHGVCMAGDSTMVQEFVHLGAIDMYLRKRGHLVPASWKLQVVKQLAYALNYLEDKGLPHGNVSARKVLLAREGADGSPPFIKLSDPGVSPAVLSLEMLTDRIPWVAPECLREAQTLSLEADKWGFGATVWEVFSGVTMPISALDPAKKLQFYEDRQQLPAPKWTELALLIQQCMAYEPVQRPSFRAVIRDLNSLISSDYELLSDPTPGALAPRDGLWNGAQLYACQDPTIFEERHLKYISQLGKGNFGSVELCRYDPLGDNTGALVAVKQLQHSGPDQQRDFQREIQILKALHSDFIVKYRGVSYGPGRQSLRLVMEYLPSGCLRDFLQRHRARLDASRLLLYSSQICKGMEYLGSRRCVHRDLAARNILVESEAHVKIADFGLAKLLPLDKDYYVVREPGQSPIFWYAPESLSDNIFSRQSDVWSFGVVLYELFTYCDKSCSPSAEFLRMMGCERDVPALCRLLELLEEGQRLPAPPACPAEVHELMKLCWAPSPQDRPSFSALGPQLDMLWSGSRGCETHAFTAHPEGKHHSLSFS
Briefly: Inhibition of JAK3 in human T-blast cells assessed as reduction in IL-2 induced STAT5 phosphorylation preincubated for 30 mins followed by IL-2 stimulation and measured after 20 mins by AlphaScreen assay. The class given is cell-based, T-blast cell. On the technique in general: Bead proximity is the source of the signal in Alpha formats.

Data set [3] in a line: Unbound clearance in dog blood at 1 mg/kg, iv. It counts as ADME, organism-based, Canis lupus familiaris. The following applies: in vivo.
The nature of data set [4]: Metabolic stability in monkey hepatocytes assessed as intrinsic clearance for unbound fraction of drug. The class given is ADME, cell-based, Macaca mulatta, Hepatocyte. Conditions: rhesus monkey.
Data set [5] in a line: AUC (0 to infinity) in dog at 1 mg/kg,po. The class given is ADME, organism-based, Canis lupus familiaris. Conditions: in vivo. On the set-up: dose 1 mg/kg, route po.
Data set [6] is described as follows: In vivo inhibition of TYK2 in IL-12/IL-18 induced C57/B6 mouse model assessed as reduction in serum IFN-gamma production at 100 mg/kg,po pretreated for 30 mins prior to IL-12/IL-18 challenge and measured after 4 hrs by MSD assay. Conditions: C57/B6, 4.5 h, time 270 min. The class given is functional.
The target in data set [7] is CYP3A4 (Homo sapiens, UniProt P08684). Briefly: Induction of CYP3A4 in human hepatocytes assessed as fold increase in mRNA level at 10 uM incubated for 24 hrs by RT-qPCR analysis relative to control. The following applies: read-out: FC. It counts as ADME, cell-based, Hepatocyte. Background: Real-time PCR tracks product formation cycle by cycle.
The nature of data set [8]: Oral bioavailability in cynomolgus monkey at 1 mg/kg. The following applies: in vivo. The class given is ADME, organism-based, Macaca fascicularis.
Data set [9] can be described thus: In vivo inhibition of TYK2 in IL-12/IL-18 induced C57/B6 mouse model assessed as reduction in serum IFN-gamma production at 300 mg/kg,po pretreated for 30 mins prior to IL-12/IL-18 challenge and measured after 4 hrs by MSD assay. It counts as functional. Conditions: C57/B6, 4.5 h, time 270 min.

CYP3A4, sequence (P08684 whole entry): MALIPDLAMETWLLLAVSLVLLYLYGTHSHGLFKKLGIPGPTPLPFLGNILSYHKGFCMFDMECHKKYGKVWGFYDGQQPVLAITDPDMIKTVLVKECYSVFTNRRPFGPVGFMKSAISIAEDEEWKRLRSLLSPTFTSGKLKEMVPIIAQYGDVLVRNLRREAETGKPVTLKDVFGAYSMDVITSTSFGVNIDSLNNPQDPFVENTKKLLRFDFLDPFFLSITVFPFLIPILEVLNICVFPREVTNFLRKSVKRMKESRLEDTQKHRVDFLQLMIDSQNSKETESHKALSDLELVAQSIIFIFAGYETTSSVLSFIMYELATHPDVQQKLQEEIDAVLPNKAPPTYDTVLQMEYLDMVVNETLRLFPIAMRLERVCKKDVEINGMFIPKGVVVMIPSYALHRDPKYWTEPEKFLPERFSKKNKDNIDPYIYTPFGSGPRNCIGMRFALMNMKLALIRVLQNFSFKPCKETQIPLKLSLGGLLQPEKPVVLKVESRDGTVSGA

For the compound `COCc1cc(-c2cn(C3COC3)c3cnc(NC(C)=O)cc23)nc([C@]2(OC)CCOC2)c1`, in data set [1], the Activity is 61%. The pEC50 in [2] is under 4.70. The CL free in data set [3] was determined as 7.67 mL/min/kg; in [4] it was 45 mL/min/kg. Further, in [5], the AUC(0-inf) amounted to 2300 ng·h/mL. Moreover, the inhibition in vivo at 100 mg/kg in data set [6] was 84%. The fold induction at 24 h, 10 µM in [7] was determined as 1.5. In addition, the bioavailability in data set [8] was determined as 17%. Also, the inhibition in vivo at 300 mg/kg in data set [9] came out at 95%.

For orientation: pEC50 means the negative decadic logarithm of the EC50, by convention in mol/L. The AUC(0-inf) is total exposure, with the tail of the curve extrapolated. By inhibition in vivo is commonly meant the change of the read-out against control, counted positive when it falls. What is called bioavailability is the share of a dose that reaches the circulation, judged against a reference dose that is usually intravenous.
